Source: patent US20240158370A1, “CK1 alpha AND DUAL CK1 alpha / GSPT1 DEGRADING COMPOUNDS” (Innovo Therapeutics, Inc., priority 2022, published 2024)

Experiments:
[1] = target: T1, CK1α (Homo sapiens, UniProt P48729+Q96SW2); experiment: HiBiT degradation assay, CK1α, Procedure A; assay type: cell-based; conditions: six hours incubation
T1 construct: CSNK1A1-HiBit KI HEK293(LgBit) Cells; host or cells: HEK293(LgBit) knock-in cells
How it was run: (§1)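 Luminescence from HiBiT lytic detection, read after 20 min shaking, gave DC50 and Ymin by 4-parameter fit. Before that, cells (1×10^6 cells/ml, DMEM+10% FBS) sat 6 h at 37° C on 10-point compound series (10 μM–0.005 μM, 0.1% DMSO).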

[2] = target: GSPT1 (Homo sapiens, UniProt P15170+Q96SW2); experiment: HiBiT degradation assay, GSPT1, Procedure A; assay type: cell-based; set-up: HiBit-GSPT1 KI HEK293(LgBit) Cells; host or cells: HEK293(LgBit) knock-in cells; conditions: six hours incubation
Chain of GSPT1 (P15170 whole entry): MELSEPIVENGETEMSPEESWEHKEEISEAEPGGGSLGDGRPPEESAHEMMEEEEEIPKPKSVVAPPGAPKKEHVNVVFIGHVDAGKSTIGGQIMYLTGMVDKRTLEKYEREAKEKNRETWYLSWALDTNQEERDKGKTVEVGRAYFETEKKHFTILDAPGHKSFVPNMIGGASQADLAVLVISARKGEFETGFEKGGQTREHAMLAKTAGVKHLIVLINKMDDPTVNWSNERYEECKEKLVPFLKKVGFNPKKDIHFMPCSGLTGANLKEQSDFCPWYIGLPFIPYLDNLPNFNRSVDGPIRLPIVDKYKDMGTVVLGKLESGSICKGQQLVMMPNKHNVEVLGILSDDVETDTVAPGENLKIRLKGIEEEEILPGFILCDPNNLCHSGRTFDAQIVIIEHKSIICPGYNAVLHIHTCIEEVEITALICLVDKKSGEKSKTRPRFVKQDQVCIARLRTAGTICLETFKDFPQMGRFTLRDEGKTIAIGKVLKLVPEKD
Chain of GSPT1 (Q96SW2 whole entry): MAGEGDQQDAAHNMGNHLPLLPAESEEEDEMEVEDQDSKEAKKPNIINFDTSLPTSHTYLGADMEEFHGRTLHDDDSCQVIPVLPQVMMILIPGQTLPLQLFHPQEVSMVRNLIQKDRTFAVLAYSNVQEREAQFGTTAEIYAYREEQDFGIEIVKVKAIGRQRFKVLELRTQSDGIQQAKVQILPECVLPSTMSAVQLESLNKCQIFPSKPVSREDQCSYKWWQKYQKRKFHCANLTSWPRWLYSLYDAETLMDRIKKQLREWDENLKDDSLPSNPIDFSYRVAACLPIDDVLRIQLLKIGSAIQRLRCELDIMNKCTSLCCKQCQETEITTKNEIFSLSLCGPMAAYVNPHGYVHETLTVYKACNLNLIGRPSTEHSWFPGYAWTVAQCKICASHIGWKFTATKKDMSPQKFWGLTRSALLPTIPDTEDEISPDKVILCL
Chain of GSPT1 (Q16531 whole entry partner): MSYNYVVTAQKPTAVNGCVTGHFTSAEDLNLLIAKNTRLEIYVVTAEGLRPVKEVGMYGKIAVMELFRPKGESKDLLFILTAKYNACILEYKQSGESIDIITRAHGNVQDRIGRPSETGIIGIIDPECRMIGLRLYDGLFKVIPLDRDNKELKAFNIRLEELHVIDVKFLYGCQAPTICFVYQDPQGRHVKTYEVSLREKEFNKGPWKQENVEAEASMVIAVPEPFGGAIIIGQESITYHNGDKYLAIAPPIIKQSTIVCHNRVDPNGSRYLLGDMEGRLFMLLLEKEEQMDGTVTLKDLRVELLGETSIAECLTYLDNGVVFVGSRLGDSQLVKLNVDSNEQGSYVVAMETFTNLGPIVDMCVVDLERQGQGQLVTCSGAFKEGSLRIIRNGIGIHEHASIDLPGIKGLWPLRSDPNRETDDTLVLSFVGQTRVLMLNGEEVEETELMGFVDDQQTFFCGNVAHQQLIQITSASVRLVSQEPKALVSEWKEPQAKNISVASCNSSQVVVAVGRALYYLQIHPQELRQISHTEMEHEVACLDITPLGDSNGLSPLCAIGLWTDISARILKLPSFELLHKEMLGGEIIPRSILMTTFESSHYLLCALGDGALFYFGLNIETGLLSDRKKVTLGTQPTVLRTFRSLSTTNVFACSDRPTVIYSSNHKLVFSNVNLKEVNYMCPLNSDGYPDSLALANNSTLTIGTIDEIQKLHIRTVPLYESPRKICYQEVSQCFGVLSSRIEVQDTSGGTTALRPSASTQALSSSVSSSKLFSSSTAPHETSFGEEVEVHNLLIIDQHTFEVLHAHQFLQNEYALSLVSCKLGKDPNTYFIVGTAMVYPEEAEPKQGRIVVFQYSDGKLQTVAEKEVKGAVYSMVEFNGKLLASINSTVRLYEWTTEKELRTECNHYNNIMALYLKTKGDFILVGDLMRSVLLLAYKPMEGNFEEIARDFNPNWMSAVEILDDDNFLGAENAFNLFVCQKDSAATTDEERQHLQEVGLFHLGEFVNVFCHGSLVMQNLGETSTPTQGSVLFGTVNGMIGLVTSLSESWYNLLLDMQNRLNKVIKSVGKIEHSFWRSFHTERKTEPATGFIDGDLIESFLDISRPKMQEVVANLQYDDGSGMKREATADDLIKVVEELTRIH
How it was run: as §1

T1 sequence (P48729 whole entry): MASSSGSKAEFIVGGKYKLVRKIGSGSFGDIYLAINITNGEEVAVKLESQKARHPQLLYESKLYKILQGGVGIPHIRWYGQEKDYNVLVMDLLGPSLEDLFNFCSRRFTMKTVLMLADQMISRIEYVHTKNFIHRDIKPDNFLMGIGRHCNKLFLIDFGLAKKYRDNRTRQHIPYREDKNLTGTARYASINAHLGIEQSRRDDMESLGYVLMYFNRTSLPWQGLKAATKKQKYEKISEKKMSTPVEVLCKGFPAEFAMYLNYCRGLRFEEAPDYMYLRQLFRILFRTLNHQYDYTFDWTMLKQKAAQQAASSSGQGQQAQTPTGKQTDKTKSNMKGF
T1 sequence (Q96SW2 whole entry): as the sequence (Q96SW2 whole entry) above
T1 sequence (Q16531 whole entry partner): as the sequence (Q16531 whole entry partner) above

Row | Structure (SMILES) | CK1α Ymin [1] | DC50 [1] | DC50 [2] | GSPT1 Ymin [2]
1 | Cn1cnc(-c2ccc3c(c2)CN(C2CCC(=O)NC2=O)C3=O)c1-c1ccc(OCc2ccccc2)cc1 (stereo not shown) [Example 310] | D (D = >10- 25% remaining) | < 25 nM | ≥ 25 nM | F (F = >75-100% remaining)
2 | Cn1cnc(-c2ccc3c(c2)CN(C2CCC(=O)NC2=O)C3=O)c1-c1ccc(COc2ccccc2)cc1 (stereo not shown) [Example 311] | D (D = >10- 25% remaining) | < 25 nM | < 25 nM | E (E = >25-75% remaining)
3 | CN1CCN(Cc2cccc(-c3c(-c4ccc5c(c4)CN(C4CCC(=O)NC4=O)C5=O)ncn3C)c2)CC1 (stereo not shown) [Example 312] | D (D = >10- 25% remaining) | ≥ 25 nM | ≥ 25 nM | F (F = >75-100% remaining)
4 | CN1CCN(Cc2ccc(-c3c(-c4ccc5c(c4)CN(C4CCC(=O)NC4=O)C5=O)ncn3C)cc2)CC1 (stereo not shown) [Example 313] | D (D = >10- 25% remaining) | ≥ 25 nM | ≥ 25 nM | F (F = >75-100% remaining)
5 | Cn1cnc(-c2ccc3c(c2)CN(C2CCC(=O)NC2=O)C3=O)c1-c1ccc(C(=O)N2CCOCC2)cc1 (stereo not shown) [Example 314] | E (E = >25-75% remaining) | ≥ 25 nM | ≥ 25 nM | F (F = >75-100% remaining)
6 | Cn1cnc(-c2ccc3c(c2)CN(C2CCC(=O)NC2=O)C3=O)c1-c1ccc(N2CCOCC2)c(Cl)c1 (stereo not shown) [Example 315] | D (D = >10- 25% remaining) | < 25 nM | ≥ 25 nM | F (F = >75-100% remaining)
7 | Cn1cnc(-c2ccc3c(c2)CN(C2CCC(=O)NC2=O)C3=O)c1C1CC1 (stereo not shown) [Example 316] | D (D = >10- 25% remaining) | < 25 nM | < 25 nM | F (F = >75-100% remaining)
8 | Cn1cnc(-c2ccc3c(c2)CN(C2CCC(=O)NC2=O)C3=O)c1-c1ccncc1 (stereo not shown) [Example 317] | D (D = >10- 25% remaining) | < 25 nM | ≥ 25 nM | F (F = >75-100% remaining)
9 | Cn1cnc(-c2ccc3c(c2)CN(C2CCC(=O)NC2=O)C3=O)c1-c1ccnn1C (stereo not shown) [Example 318] | E (E = >25-75% remaining) | < 25 nM | < 25 nM | F (F = >75-100% remaining)
10 | Cc1nocc1-c1c(-c2ccc3c(c2)CN(C2CCC(=O)NC2=O)C3=O)ncn1C (stereo not shown) [Example 320] | D (D = >10- 25% remaining) | < 25 nM | ≥ 25 nM | F (F = >75-100% remaining)
11 | Cc1cncc(-c2c(-c3ccc4c(c3)CN(C3CCC(=O)NC3=O)C4=O)ncn2C)c1 (stereo not shown) [Example 321] | D (D = >10- 25% remaining) | < 25 nM | ≥ 25 nM | F (F = >75-100% remaining)
12 | Cc1c(-c2c(-c3ccc4c(c3)CN(C3CCC(=O)NC3=O)C4=O)ncn2C)cnn1C (stereo not shown) [Example 322] | C (C = 0-10% remaining) | < 25 nM | < 25 nM | F (F = >75-100% remaining)
13 | Cc1nn(C)cc1-c1c(-c2ccc3c(c2)CN(C2CCC(=O)NC2=O)C3=O)ncn1C (stereo not shown) [Example 323] | E (E = >25-75% remaining) | ≥ 25 nM | ≥ 25 nM | F (F = >75-100% remaining)
14 | Cc1cc(-c2c(-c3ccc4c(c3)CN(C3CCC(=O)NC3=O)C4=O)ncn2C)n(C)n1 (stereo not shown) [Example 324] | E (E = >25-75% remaining) | ≥ 25 nM | ≥ 25 nM | F (F = >75-100% remaining)
15 | Cn1cnc(-c2ccc3c(c2)CN(C2CCC(=O)NC2=O)C3=O)c1-c1cnc(C#N)nc1 (stereo not shown) [Example 325] | E (E = >25-75% remaining) | ≥ 25 nM | ≥ 25 nM | F (F = >75-100% remaining)
16 | Cn1cnc(-c2ccc3c(c2)CN(C2CCC(=O)NC2=O)C3=O)c1-c1cnn(C2CC2)c1 (stereo not shown) [Example 326] | C (C = 0-10% remaining) | < 25 nM | < 25 nM | F (F = >75-100% remaining)
17 | COc1ncccc1-c1c(-c2ccc3c(c2)CN(C2CCC(=O)NC2=O)C3=O)ncn1C (stereo not shown) [Example 327] | D (D = >10- 25% remaining) | < 25 nM | < 25 nM | F (F = >75-100% remaining)

Row | Structure (SMILES) | CK1α Ymin [1] | DC50 [1] | DC50 [2] | GSPT1 Ymin [2]
18 | Cn1cnc(-c2ccc3c(c2)CN(C2CCC(=O)NC2=O)C3=O)c1-c1ccn(C)c(=O)c1 (stereo not shown) [Example 328] | D (D = >10- 25% remaining) | ≥ 25 nM | ≥ 25 nM | F (F = >75-100% remaining)
19 | COc1ccc(-c2c(-c3ccc4c(c3)CN(C3CCC(=O)NC3=O)C4=O)ncn2C)cn1 (stereo not shown) [Example 329] | C (C = 0-10% remaining) | < 25 nM | ≥ 25 nM | E (E = >25-75% remaining)
20 | CC(C)n1cc(-c2c(-c3ccc4c(c3)CN(C3CCC(=O)NC3=O)C4=O)ncn2C)cn1 (stereo not shown) [Example 330] | E (E = >25-75% remaining) | < 25 nM | ≥ 25 nM | F (F = >75-100% remaining)
21 | Cn1cnc(-c2ccc3c(c2)CN(C2CCC(=O)NC2=O)C3=O)c1-c1cnn(-c2ccccc2)c1 (stereo not shown) [Example 332] | D (D = >10- 25% remaining) | < 25 nM | ≥ 25 nM | F (F = >75-100% remaining)
22 | O=C1CCC(N2Cc3cc(-c4cnn(C(F)(F)F)c4-c4ccccc4)ccc3C2=O)C(=O)N1 (stereo not shown) [Example 333, 3-(1-oxo-5-(5-phenyl-1-(trifluoromethyl)-1H-pyrazol-4-yl)isoindolin-2-yl)piperidine-2,6-dione] | E (E = >25-75% remaining) | < 25 nM | ≥ 25 nM | E (E = >25-75% remaining)
23 | CC(F)(F)Cn1ncc(-c2ccc3c(c2)CN(C2CCC(=O)NC2=O)C3=O)c1-c1ccccc1 (stereo not shown) [Example 336, 3-(5-(1-(2,2-difluoropropyl)-5-phenyl-1H-pyrazol-4-yl)-1-oxoisoindolin-2-yl)piperidine-2,6-dione] | D (D = >10- 25% remaining) | ≥ 25 nM | ≥ 25 nM | F (F = >75-100% remaining)
24 | O=C1CCC(N2Cc3cc(-c4cc(-c5ccccc5)n(C(F)F)n4)ccc3C2=O)C(=O)N1 (stereo not shown) [Example 337, 3-(5-(1-(difluoromethyl)-5-phenyl-1H-pyrazol-3-yl)-1-oxoisoindolin-2-yl)piperidine-2,6-dione] | D (D = >10- 25% remaining) | ≥ 25 nM | ≥ 25 nM | F (F = >75-100% remaining)
25 | Cc1c(-c2ccc3c(c2)CN(C2CCC(=O)NC2=O)C3=O)nc(-c2ccccc2)n1C (stereo not shown) [Example 338, 3-(5-(1,5-dimethyl-2-phenyl-1H-imidazol-4-yl)-1-oxoisoindolin-2-yl)piperidine-2,6-dione] | C (C = 0-10% remaining) | < 25 nM | ≥ 25 nM | F (F = >75-100% remaining)
26 | Cn1ncc(-c2ccc3c(c2)CN(C2CCC(=O)NC2=O)C3=O)c1-c1ccc(OC(F)(F)F)cc1 (stereo not shown) [Example 340, 3-(5-(1-methyl-5-(4-(trifluoromethoxy)phenyl)-1H-pyrazol-4-yl)-1-oxoisoindolin-2-yl)piperidine-2,6-dione] | E (E = >25-75% remaining) | < 25 nM | < 25 nM | F (F = >75-100% remaining)
27 | COc1ccc(-c2nn(C(F)F)cc2-c2ccc3c(c2)CN(C2CCC(=O)NC2=O)C3=O)cc1F (stereo not shown) [Example 341, 3-(5-(1-(difluoromethyl)-3-(3-fluoro-4-methoxyphenyl)-1H-pyrazol-4-yl)-1-oxoisoindolin-2-yl)piperidine-2,6-dione] | E (E = >25-75% remaining) | < 25 nM | ≥ 25 nM | F (F = >75-100% remaining)
28 | Cn1cnc(-c2ccc3c(c2)CN(C2CCC(=O)NC2=O)C3=O)c1-c1ccc(C#N)s1 (stereo not shown) [Example 342] | F (F = >75-100% remaining) | ≥ 25 nM | ≥ 25 nM | F (F = >75-100% remaining)
29 | Cn1cnc(-c2ccc3c(c2)CN(C2CCC(=O)NC2=O)C3=O)c1-c1cccc(N)c1 (stereo not shown) [Example 343] | C (C = 0-10% remaining) | < 25 nM | ≥ 25 nM | F (F = >75-100% remaining)
30 | Cc1ccsc1-c1c(-c2ccc3c(c2)CN(C2CCC(=O)NC2=O)C3=O)ncn1C (stereo not shown) [Example 344] | E (E = >25-75% remaining) | < 25 nM | ≥ 25 nM | F (F = >75-100% remaining)
31 | COc1cccc(-c2c(-c3ccc4c(c3)CN(C3CCC(=O)NC3=O)C4=O)ncn2C)c1 (stereo not shown) [Example 345] | E (E = >25-75% remaining) | < 25 nM | ≥ 25 nM | F (F = >75-100% remaining)
32 | Cn1cnc(-c2ccc3c(c2)CN(C2CCC(=O)NC2=O)C3=O)c1-c1ccc2[nH]ccc2c1 (stereo not shown) [Example 346] | D (D = >10- 25% remaining) | < 25 nM | ≥ 25 nM | F (F = >75-100% remaining)
33 | Cn1cnc(-c2ccc3c(c2)CN(C2CCC(=O)NC2=O)C3=O)c1-c1ccccc1C1CC1 (stereo not shown) [Example 347] | E (E = >25-75% remaining) | < 25 nM | ≥ 25 nM | F (F = >75-100% remaining)
34 | Cn1cnc(-c2ccc3c(c2)CN(C2CCC(=O)NC2=O)C3=O)c1-c1ccsc1Cl (stereo not shown) [Example 348] | E (E = >25-75% remaining) | < 25 nM | ≥ 25 nM | F (F = >75-100% remaining)
